Consider 2 substances from patent US10610573B2, “NDP-MSH for treatment of inflammatory and/or neurodegenerative disorders of the central nervous system” (Westfaelische Wilhelms—Universitaet Muenster, priority 2013, dated 2020).

In one assay the test system is CD11c-DTR mice. The experiment in a line: EAE in DC-depleted CD11c-DTR mice. Format: in vivo, mouse. Particulars: DC depleted by diphtheria toxin, 5 μg i.v. every 48 hours.
A further assay concerns dendritic cells. The experiment in a line: DC phenotype in regional lymph nodes of immunized mice. Type of assay: in vivo, mouse. Conditions: vs PBS. How it is done: FIG. 5 Generation of tolerogenic dendritic cells by NDP-MSH treatment. The DC phenotype in regional lymph nodes from immunized NDP-MSH and PBS treated mice was analyzed. One representative dot plot (A) as well as the statistical evaluation from n=2-6 mice (B) is depicted. Cells are gated for MHCII and IL-10 as well as IFN-γ staining was performed after cell permeabilization. *, p<0.05 versus PBS treated mice.
Further, the DC phenotype in regional lymph nodes from immunized NDP-MSH and PBS treated mice was analyzed.

The test system of a further assay is Devic mice. Kind of assay: Spontaneous EAE model (Devic mice). Type of assay: in vivo, mouse. How it is done: FIG. 7 Devic mice at the age of 38 days and a clinical score of 7 (severe hind limb paralysis) were injected intravenously with 5 μg NDP-MSH every other day for 3 weeks. […] Disease progression was monitored over time.
To characterize the effects of NDP-MSH in a spontaneous EAE model Devic mice were used. Devic mouse mutants express transgenic T- and B-cell receptors specific for MOG and spontaneously develop EAE at the age of 4-5 weeks (Bettelli et al., 2006).
Starting at the age of 38 days when mice reached a clinical score of 7 (severe hind limb paralysis) animals were injected intravenously with 5 μg NDP-MSH every other day. […] Part of the mice almost completely recovered from disease. At day 60, NDP-MSH treatment was interrupted and mice were monitored for the onset of clinical symptoms.

The test system of assay [1] is C57BL/6 mice with experimental autoimmune encephalomyelitis (EAE). The experiment in a line: MOG35-55-induced EAE, therapeutic systemic NDP-MSH treatment. Format: in vivo, mouse. Particulars: 5 μg NDP-MSH i.v. every 48 h from clinical score 2-3 (day 12), vs PBS. How it is done:
FIG. 1 Effect of systemic NDP-MSH treatment on ongoing Experimental Autoimmune Encephalomyelitis (EAE). C57BL/6 mice were actively immunized by subcutaneous injection of myelin oligodendrocyte glycoprotein (MOG35-55) emulsified in Complete Freund's Adjuvant and systemically treated with 5 μg NDP-MSH or PBS every 48 hours beginning at a clinical score of 2-3. Mice were monitored for clinical score (A) and body weight (B) and sacrificed at day 17. Data from n=17 mice in each group is depicted, *, p<0.05 versus PBS-treated controls.
To investigate whether NDP-MSH is able to inhibit autoimmunity and inflammation in organs different from the skin, such as the central nervous system (CNS), the mouse model of experimental autoimmune encephalomyelitis (EAE), a T cell-mediated inflammatory autoimmune disease resembling human multiple sclerosis, was used.
Therefore, C57BL/6 mice were actively immunized by subcutaneous injection of myelin oligodendrocyte glycoprotein (MOG35-55) emulsified in Complete Freund's Adjuvant at the back skin (day 0). At day 0 and day 2 mice received intraperitoneal injections of 400 ng pertussis toxin and disease development was monitored daily. […] All mice were sacrificed at day 17 and analyzed on a cellular and molecular level. […]

Another assay concerns Nur77. Kind of assay: Nur77 expression in NDP-MSH stimulated neurons. Type of assay: cell-based. Conditions: vs vehicle-treated controls.
The test system of assay [2] is Th1 and Th17 cells in the CNS. The experiment in a line: Flow cytometry of pathogenic Th1 and Th17 cells in the CNS of EAE mice. Type of assay: in vivo, mouse. Conditions: day 17 post immunization, brain and spinal cord, n=8, vs PBS controls. How it is done:
FIG. 3 Effect of NDP-MSH treatment of numbers of pathogenic Th1 and Th17 cells in the CNS. At day 17 post immunization brain and spinal cord from EAE mice treated with PBS and NDP-MSH as described for FIG. 1 were isolated. Cells were analyzed by multi-color flow cytometry using antibodies against CD4, IL-17, ROR-γt, IFN-γ and T-bet. One representative image (A) as well as the statistical evaluation from n=8 mice in each group (B) is shown, Cells are gated for CD4 and IL-17, ROR-γt, IFN-γ as well as T-bet staining was performed after cell permeabilization.
Reduced numbers of pathogenic Th1 and Th17 cells in the CNS from NDP-MSH treated mice compared to PBS-treated controls. At day 17 post immunization brain and spinal cord were isolated from PBS- and NDP-MSH-treated mice and single cell suspensions were prepared using density gradient centrifugation. Subsequently, cells were analyzed by multi-color flow cytometry using antibodies against CD4, IL-17, ROR-gt, IFN-g and T-bet. […] Cells are gated for CD4 and IL-17, ROR-gt, IFN-g as well as T-bet staining was performed after cell permeabilization.

In another assay the test system is effector T cells. The experiment in a line: Suppression of effector T cell proliferation in vitro by Treg from treated mice. Type of assay: cell-based, mouse.
The next assay concerns brain tissue of EAE mice. The experiment in a line: Histology and immunofluorescence of brain tissue from EAE mice. Format: in vivo, mouse. Conditions: day 17 post immunization, vs PBS. How it is done:
FIG. 2 Histological analyses of brain tissue obtained from mice treated as described in FIG. 1. […] One representative image for each group (+NDP-MSH, +PBS) is shown.
Brain tissue from mice treated with NDP-MSH or PBS at day 17 post immunization obtained from Ex. 1 was analyzed. […] One representative overview (A) as well as a sectional enlargement (B) is depicted for each group. […] One representative image for each group is shown.

The subject of the next assay is MC-1R deficient mice. The experiment in a line: EAE in MC-1R deficient mice. Format: in vivo, mouse. Conditions: treated as in Ex. 1. An excerpt: FIG. 6 Involvement of the melanocortin-1 receptor in effects of NDP-MSH on EAE progression. EAE was induced in MC-1R deficient mice as described in FIG. 1. Subsequently, disease development was monitored over time.
To investigate whether the NDP-MSH induced effects on the progression of EAE were mediated via binding to a functional MC-1R, EAE was induced in MC-1R deficient mice with a point mutation in the MC-1R gene resulting in a truncated protein (Roberts et al., 1993). Mice were immunized with MOG35-55, injected with pertussis toxin and treated with NDP-MSH or PBS as described in Ex. 1. Subsequently, disease development was monitored over time.

In assay [3] the test system is rat primary astrocytes and microglia. Particulars: in vitro, via MC-4R signaling; cited from earlier work.
Assay [4] relates to Foxp3+ regulatory T cells. Kind of assay: Flow cytometry of Foxp3+ regulatory T cells from brain tissue of EAE mice. Format: in vivo, mouse. Conditions: day 17 post immunization, vs controls. How it is done: FIG. 4 Induction of functional regulatory T cells in the CNS by NDP-MSH treatment. Numbers, phenotype, and function of Foxp3^+ regulatory T cells isolated from brain tissue of NDP-MSH and PBS treated mice were analyzed. One representative dotplot (A) as well as the statistical evaluation from n=6 mice (B) is depicted. Cells are gated for CD4 and Foxp3 as well as Helios staining was performed after cell permeabilization. *, p<0.05 versus PBS treated mice.
Numbers, phenotype and function of Foxp3^+ regulatory T cells (Treg) isolated from brain tissue of NDP-MSH and PBS treated mice as described in Ex. 1 was analyzed at day 17 post immunization by flow cytometry analysis.
(In general: In flow cytometry, cells or beads pass a laser one at a time.)

The subject of a further assay is MOG-immunized mice. Kind of assay: MOG-induced EAE, preemptive NDP-MSH injection. Type of assay: in vivo, mouse. Particulars: preemptive injection before onset of hind limb paralysis. An excerpt: The neuropeptide α-MSH is a potent immunomodulator capable of inducing immunosuppression and tolerance. Using the mouse model of experimental autoimmune encephalomyelitis (EAE) the present inventors systemically treated MOG-immunized mice with NDP-MSH before and after the onset of hind limb paralysis. […] Since signaling via melanocortin-1-receptor (MC-1R) mediates the immunomodulatory effects of α-MSH, EAE was induced in MC-1R-deficient mice.

In the next assay the test system is primary mouse neurons. The experiment in a line: Glutamate-stimulated primary neurons, apoptosis genes and neuronal damage. Type of assay: cell-based. How it is done:
FIG. 10 Expression of pro-apoptotic (caspase-8) and anti-apoptotic (Bcl-2) genes in primary mouse neurons after treatment with […] Glutamat or 50 μM Glutamat+1 nM NDP-MSH. Primary murine neurons were stimulated with glutamate which results in apoptosis (increased expression of pro-apoptotic caspase-8 and a reduced expression of anti-apoptotic Bcl-2 relative to PBS-treated controls).
The neuroprotective role of NDP-MSH was further confirmed analyzing neurons from NDP-MSH-treated animals and vehicle-treated controls (isolated before and after MOG immunization) using histological staining tests for the detection of myelin, NeuN, act. Caspase 3 and TUNEL. Further, in vitro stimulation of neurons from embryonic mice with glutamate—which causes cell damage—in the presence or absence of NDP-MSH and subsequent histological staining tests for the detection of myelin, NeuN, act. […] Thus, a neuroprotective effect of NDP-MSH is a very likely explanation for the observed effect in the EAE model.

The test system of a further assay is DEREG mice. Kind of assay: EAE in Treg-depleted DEREG mice. Format: in vivo, mouse. Particulars: Treg depleted by diphtheria toxin, 5 μg i.v. every 48 hours.
The conditions of assay [5]: rat, in vivo; cited from earlier work.
The mark [6] stands for this setting: 50 μM glutamate + 1 nM NDP-MSH vs glutamate alone.

Method for CD11c-DTR mice: DC were depleted in C11c-DTR mice as described by Hochweller et al. (2008) by systemic treatment with diphtheria toxin. Subsequently, EAE was induced as described in FIG. 1. 5 μg NDP-MSH were injected intravenously every 48 hours and disease progression was monitored over time.
From the text for DEREG mice: Treg were depleted in DEREG mice as described by Lahl et al. (2007) by systemic treatment with diphtheria toxin. Subsequently, EAE was induced as described in FIG. 1.
Subsequently, EAE was induced as described in Ex. 1.

For [Nle^4, D-Phe^7]-α-MSH [NDP-MSH], in the assay on CD11c-DTR mice, the disease onset result was “prevented disease onset”. For the same substance, in the assay on dendritic cells, the “DC expression of PD-L1 or IL-10” value is reported as “increased levels”; the “DC maturation markers CD80 and IFN-γ” value was “down-regulated”. In addition, the “disease course (clinical symptoms of EAE)” value in the assay on Devic mice (5 μg i.v. every other day for 3 weeks from day 38, clinical score 7) was “significant amelioration of disease in all animals”. Besides, in the assay on Devic mice (5 μg i.v. every other day for 3 weeks, vs PBS), the body weight result was “gained weight”. The “disease recurrence after treatment interruption” value with Devic mice (treatment interrupted at day 60, several weeks without injection) is reported as “no disease recurrence”. For the same substance, in assay [1], the body weight entry is given as “started gaining weight after the first injection” and the “paralysis (clinical score)” value was “recovered from paralysis”. Besides, in the assay with Nur77, the Nur77 receptor expression result was “induction of the neuroprotective Nur77 receptor”. In assay [2], the “reduced infiltration of Th1 cells in the CNS” value turned out to be 2 factor and the “reduced infiltration of Th17 cells in the CNS” value is 5 factor. For the same substance, in the assay on effector T cells, the “function of Treg from treated mice: proliferation of effector T cells” value is “efficiently inhibited the proliferation of effector T cells”. In the assay on brain tissue of EAE mice (immunofluorescence), the “expression of tissue destruction marker APP in the brain” value is “Dramatically reduced expression” and the “expression of tissue inflammation marker RILPL2 in the brain” value was “Dramatically reduced expression”. In the assay on brain tissue of EAE mice, the “mononuclear pro-inflammatory cells infiltrating the brain (H&E staining)” value was “almost no cell infiltrates were detectable” and the “myelination of the brain (luxol fast blue staining)” value was “tremendous re-myelination”. Also, the “disease development (hind limb paralysis)” value in the assay on MC-1R deficient mice is “developed hind limb paralysis similar to PBS treated controls”. Besides, the “release of IL-10 and TGF-β” value in assay [3] is “stimulates the release of IL-10 and TGF-β”. The “numbers of Foxp3+ Treg expressing Helios or CTLA-4 in brain tissue” value in assay [4] is “present at higher numbers”. The EAE development entry in the assay on MOG-immunized mice is listed as “resistant to EAE development”. Also, in the assay with primary mouse neurons (setting [6]), the “expression of anti-apoptotic Bcl-2” value is given as “increased expression of anti-apoptotic Bcl-2” and the “expression of pro-apoptotic caspase-8” value is “reduced expression of pro-apoptotic caspase-8”. The “glutamate-induced neuronal damage (myelin, NeuN, act. Caspase 3, TUNEL staining)” value with primary mouse neurons (neurons from embryonic mice, in vitro) is on record as “reduce the glutamate-induced neuronal damage”. In the assay with DEREG mice, the disease severity entry was “reduced disease severity”.
With melanotan-II, the “nerve regeneration and neuroprotection” value in assay [5] was “effective in nerve regeneration and neuroprotection”.
